Data from patent publication US10322103B2, “Compositions for prevention/prophylactic treatment of poison ivy dermatitis” (The University of Mississippi, priority 2008, dated 2019).

Key:
[1] = Polarity: dissolution in ethanol and dilution with aqueous medium; assay type: physicochemical
Excerpt: Polarity of HDC-Phenyl Alaninate Ester:

[2] = test system: urushiol contact dermatitis; assay: Induction of tolerance to poison ivy/poison oak urushiol in the guinea pig contact dermatitis model; assay type: in vivo, Hartley guinea pigs; details: for erythema at the exposure site / erythema or edema observed: Test #1; for erythema at the exposure site: 24, 48 or 72 hrs post challenge, urushiol 3.0, 4.5 and 6.0 ug; for erythema or edema at the site of urushiol challenge: 24 hours, any of the doses used; for skin lesion scores compared to groups IV and V: all the 3 tests
Excerpt: Animals: Hartley strains of guinea pigs (n=40) were obtained from Harlan, Indianapolis Ind. 46229. The animals were divided in the 5 groups (n=8/group) and treated as described hereunder. These animals were kept in a controlled environment with a 12-hour day and night cycle and provided feed and water ad libitum. Study design: FIG. 8 describes the general procedure for determining the efficacy of the agents produced according to the present invention.
Application sites of urushiol challenge doses on abdominal skin are shown in FIG. 9, and are described below.
Group I. Animals in this group were given the compound (4) (HDC 4-(4-aminophenyl) butyrate ester) via the intramuscular (IM) route; 300 ul of the equivalent of 20 mg/mL solution of the free catechol in 5% ethanol in each hind leg. Two weeks later these animals were sensitized with urushiol (100 uL acetone containing 1.0 mg of urushiol) on the surface skin in the neck region. Two weeks later the animals were challenged with urushiol (15 uL volume acetone containing 3.0 ug, 4.5 ug or 6.0 ug) on the abdominal skin in a volume of 15 uL. The vehicle contained 15 uL of acetone (see diagram 2). The animals were tested 3 times after sensitization: Test #1 at two weeks post sensitization, test #2 conducted at four weeks post sensitization and test #3 was conducted twelve weeks post sensitization.
Group II. Animals were given 300 uL of the equivalent of 20 mg/mL solution of the free catechol in 5% ethanol of HDC Phenyl alaninate ester (compound 3) via the IM route in each hind leg (total 600 uL). This was followed by sensitization with urushiol on the neck, and then tested with urushiol challenge on the abdominal skin as described for group I.
Group III. Animals were given 300 uL of the equivalent of 20 mg/mL solution of the free catechol in 5% ethanol of HDC Hemiglutarate ester (compound 5) via the IM route in each hind leg. This was followed, two weeks later, by sensitization with (urushiol 100 uL) on the neck, followed by abdominal skin test as described for group I.
Group IV. Animals were given 300 uL of vehicle (5% ethanol) via the IM route in each of the hind legs. This was followed, two weeks later, by sensitization and then followed by abdominal skin test as described for group I.
Group V. Animals in this group were given PBS (300 uL in each of the hind legs) via the IM route. This was followed two weeks later by sensitization and then followed by abdominal skin test as described for group I.
After challenging the animals with urushiol on their abdominal skin, the severity of Erythema and Edema were observed and scored according to the Draize scoring system as shown below. The scores were recorded at 24, 48 and 72 hrs post urushiol skin application.

[3] = Test #2, 48 hours, urushiol challenge dose 4.5 ug
[4] = Test #2, 48 hours, urushiol challenge dose 6.0 ug

SMILES | appearance of solution (polarity) ([1]; 10 mg dissolved in 50 ul of ethanol, adjusted to 1 ml with water) | erythema at the exposure site [2] | erythema or edema observed ([2]; 48 hours post challenge) | erythema or edema observed ([2]; 72 hours post challenge) | skin lesion score ([2]; Test #2, 48 hours, all challenge doses) | erythema or edema at the site of urushiol challenge ([2]; Test #3) | lesion score ([2]; Test #3, 48 hours) | skin lesion scores compared to groups IV and V [2] | appearance of solution (polarity) ([1]; 10 mg as a HCl salt in 50 ul of ethanol, adjusted to 1 mL with water (10 mg/mL)) | total skin lesion score [2, 3] | total skin lesion score [2, 4] | appearance of solution (polarity) ([1]; 10 mg in 50 ul of ethanol, adjusted to 1 ml with potassium phosphate buffer (pH 8)) | total lesion score ([2]; Test #2, 72 hours)
CCCCCCCCCCCCCCCCCc1cccc(OC(=O)[C@@H](N)Cc2ccccc2)c1OC(=O)[C@@H](N)Cc1ccccc1 [Compound 3, HDC-Phenyl Alaninate Ester] | formed a homogenous solution | did not show any or showed very slight erythema | no erythema or edema was observed | no erythema or edema was observed | ≤ 1.0 | did not show erythema or edema | ≤ 1.0 | negligible |  |  |  |  | 
CCCCCCCCCCCCCCCCCc1cccc(OC(=O)CCCc2ccc(N)cc2)c1OC(=O)CCCc1ccc(N)cc1 [Compound 4] |  | did not show any or showed very slight erythema | no erythema or edema was observed | no erythema or edema was observed |  | did not show erythema or edema |  | negligible | clear solution | 1.5 | 1.5 |  | 
CCCCCCCCCCCCCCCCCc1cccc(OC(=O)CCCC(=O)O)c1OC(=O)CCCC(=O)O [Compound 5, 5,5′(3-heptadecyl-1,2-phenylene)bis(oxy)bis(5-oxopentanoic acid)] |  | did not show any or showed very slight erythema | no erythema or edema was observed | no erythema or edema was observed |  | did not show erythema or edema |  | negligible |  | 1.0 | 2.5 | formed a homogenous solution | ≤ 2.0
